Calls of active or inactive are those of the source.
Legend:
[1] = target: Voltage-gated inwardly rectifying potassium channel KCNH2 (Homo sapiens, UniProt Q12809); conditions: Potency;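 further: confirmatory quantitative high-throughput screen measuring inhibition of hERG channel activity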
[2] = target: 5-hydroxytryptamine receptor 5A (Homo sapiens, UniProt P47898); assay: Counterscreen for agonists of OPRM1-OPRD1 heterodimerization: luminescence-based cell-based high throughput dose response assay to identify agonists of 5-hydroxytryptamine (serotonin) 5A receptor (HTR5A). [Related pubchem assays (depositor defined):AID504326, AID504355, AID504692, AID504904, AID504905]; type: functional
Chain of 5-hydroxytryptamine receptor 5A (P47898 whole entry): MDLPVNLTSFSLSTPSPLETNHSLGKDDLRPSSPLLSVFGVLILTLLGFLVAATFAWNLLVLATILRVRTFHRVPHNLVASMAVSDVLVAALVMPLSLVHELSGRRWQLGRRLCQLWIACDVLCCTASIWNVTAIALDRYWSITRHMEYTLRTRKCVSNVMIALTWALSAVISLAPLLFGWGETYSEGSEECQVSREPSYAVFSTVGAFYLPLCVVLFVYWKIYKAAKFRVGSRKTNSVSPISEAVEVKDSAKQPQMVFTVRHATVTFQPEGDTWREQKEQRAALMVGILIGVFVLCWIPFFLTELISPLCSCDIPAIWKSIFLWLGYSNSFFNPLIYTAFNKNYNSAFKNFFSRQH

[3] = target: Delta-type opioid receptor (Homo sapiens, UniProt P41143); assay: Counterscreen for agonists of heterodimerization of the mu 1 (OPRM1) and delta 1 (OPRD1) opioid receptors: Luminescence-based cell-based high throughput dose response assay to identify agonists of OPRD1 homodimerization. [Related pubchem assays (depositor defined):AID504326, AID504355, AID504692, AID504904, AID504905]; type: functional
Chain of Delta-type opioid receptor (P41143 whole entry): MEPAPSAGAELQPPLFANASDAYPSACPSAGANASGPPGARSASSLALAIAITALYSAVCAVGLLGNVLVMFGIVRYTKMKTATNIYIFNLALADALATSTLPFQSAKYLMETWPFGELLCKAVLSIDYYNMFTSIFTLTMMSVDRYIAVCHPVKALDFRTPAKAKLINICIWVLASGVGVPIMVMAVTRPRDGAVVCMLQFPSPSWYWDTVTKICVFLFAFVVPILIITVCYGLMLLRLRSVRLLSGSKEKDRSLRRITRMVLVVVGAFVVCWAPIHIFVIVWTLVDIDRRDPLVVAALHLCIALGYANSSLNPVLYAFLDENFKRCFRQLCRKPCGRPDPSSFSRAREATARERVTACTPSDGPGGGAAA

[4] = target: T1, Short transient receptor potential channel 4 (Mus musculus, UniProt Q9QUQ5); assay: calcium entry via TRPC4 opening agents – cell-based, HEK293 TRPC4/mu-opioid, Fluo-4 calcium, dose response (AID 434937); type: functional
T1 sequence (Q9QUQ5 whole entry): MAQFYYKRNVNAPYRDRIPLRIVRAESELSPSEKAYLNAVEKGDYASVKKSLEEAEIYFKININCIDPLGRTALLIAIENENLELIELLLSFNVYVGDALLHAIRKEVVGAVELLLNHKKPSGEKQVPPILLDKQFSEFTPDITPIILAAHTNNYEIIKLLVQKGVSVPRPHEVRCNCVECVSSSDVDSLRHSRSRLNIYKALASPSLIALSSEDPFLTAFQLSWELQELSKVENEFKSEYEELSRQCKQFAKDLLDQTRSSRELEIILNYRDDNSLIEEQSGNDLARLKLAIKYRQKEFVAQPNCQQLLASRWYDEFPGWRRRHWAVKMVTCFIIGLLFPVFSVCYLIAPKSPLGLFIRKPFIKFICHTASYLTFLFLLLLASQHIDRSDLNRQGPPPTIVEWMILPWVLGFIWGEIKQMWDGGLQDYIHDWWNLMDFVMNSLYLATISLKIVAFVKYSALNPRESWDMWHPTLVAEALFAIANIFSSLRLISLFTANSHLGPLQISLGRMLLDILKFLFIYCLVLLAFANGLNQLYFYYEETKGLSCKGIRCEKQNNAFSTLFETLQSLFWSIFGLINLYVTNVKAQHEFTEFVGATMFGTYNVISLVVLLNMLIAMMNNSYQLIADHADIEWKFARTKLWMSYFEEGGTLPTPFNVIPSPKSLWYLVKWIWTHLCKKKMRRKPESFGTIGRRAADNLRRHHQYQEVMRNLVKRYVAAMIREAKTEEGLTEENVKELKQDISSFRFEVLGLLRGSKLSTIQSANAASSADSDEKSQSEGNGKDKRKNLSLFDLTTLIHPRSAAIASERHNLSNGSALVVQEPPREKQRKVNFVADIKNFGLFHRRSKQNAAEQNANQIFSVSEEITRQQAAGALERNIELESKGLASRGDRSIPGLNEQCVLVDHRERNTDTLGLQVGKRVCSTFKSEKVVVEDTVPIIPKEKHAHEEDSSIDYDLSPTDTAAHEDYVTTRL

Mu-type opioid receptor = Mu-type opioid receptor (Homo sapiens, UniProt P35372); assay: Counterscreen for agonists of heterodimerization of the mu 1 (OPRM1) and delta 1 (OPRD1) opioid receptors: Luminescence-based cell-based high throughput dose response assay to identify agonists of OPRM1 homodimerization.; type: functional;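 further: U2OS cells expressing OPRM1 and beta-arrestin as split beta-galactosidase partners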
Chain of Mu-type opioid receptor (P35372 whole entry): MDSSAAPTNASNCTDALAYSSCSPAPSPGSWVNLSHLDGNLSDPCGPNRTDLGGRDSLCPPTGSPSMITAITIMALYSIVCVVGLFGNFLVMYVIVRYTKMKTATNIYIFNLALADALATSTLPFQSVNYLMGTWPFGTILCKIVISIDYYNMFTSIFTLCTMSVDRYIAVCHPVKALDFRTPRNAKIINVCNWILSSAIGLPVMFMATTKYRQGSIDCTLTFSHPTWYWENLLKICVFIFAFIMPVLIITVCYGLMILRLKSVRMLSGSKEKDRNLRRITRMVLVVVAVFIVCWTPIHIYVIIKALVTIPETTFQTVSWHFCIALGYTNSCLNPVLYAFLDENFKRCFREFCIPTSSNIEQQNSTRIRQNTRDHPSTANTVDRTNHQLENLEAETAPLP

Phospholipase A2 = Phospholipase A2 (Homo sapiens, UniProt P04054); type: functional;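 further: confirmatory dose-response counterscreen on phospholipase A2, testing hits that came from an ultra-high-throughput screen for ATG4B inhibitors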
Chain of Phospholipase A2 (P04054 whole entry): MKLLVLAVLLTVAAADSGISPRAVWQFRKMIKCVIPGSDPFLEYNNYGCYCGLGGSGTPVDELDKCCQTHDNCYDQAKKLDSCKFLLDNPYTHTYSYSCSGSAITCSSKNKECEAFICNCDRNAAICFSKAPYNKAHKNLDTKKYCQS

Cysteine protease ATG4B = Cysteine protease ATG4B (Homo sapiens, UniProt Q9Y4P1); type: functional;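 further: Fluorescence-based dose-response confirmation assay measuring inhibition of ATG4B activity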
[5] = Counterscreen for AddAB inhibitors: absorbance-based bacterial cell-based high throughput dose response assay for inhibitors of bacterial viability. [Related pubchem assays (depositor defined):AID435030, AID449728, AID449731, AID488942, AID488955, AID488956]; type: functional
[6] = NIH-3T3 fibroblast cytotoxicity, dose response, cytotoxicity control, cell-based, fluorescence, Alamar Blue, secondary assay (AID 2327); type: functional;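 further: NIH-3T3 mouse fibroblasts cultured with fluconazole at 8 µg/mL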
[7] = target: T2, Induced myeloid leukemia cell differentiation protein Mcl-1 (Homo sapiens, UniProt Q07820); assay: blockers of MCL1 binding to BIM peptide – biochemical, fluorescence polarization, BIM-BH3 peptide, 1536-well, dose response (AID 2217)
T2 sequence (Q07820 whole entry): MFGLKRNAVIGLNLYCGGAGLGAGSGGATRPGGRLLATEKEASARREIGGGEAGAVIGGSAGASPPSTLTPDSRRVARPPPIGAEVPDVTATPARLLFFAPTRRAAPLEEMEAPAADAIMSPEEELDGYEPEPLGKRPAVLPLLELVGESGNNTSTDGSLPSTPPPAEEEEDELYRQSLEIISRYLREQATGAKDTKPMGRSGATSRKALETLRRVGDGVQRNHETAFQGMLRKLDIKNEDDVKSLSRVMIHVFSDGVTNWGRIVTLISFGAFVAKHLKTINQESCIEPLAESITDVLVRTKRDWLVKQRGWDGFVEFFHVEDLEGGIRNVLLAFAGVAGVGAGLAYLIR

[8] = fluconazole-exposed Candida albicans growth modulators – fluorescence, retest, confirmation (AID 2467); type: functional, cell-based
[9] = target: T2, Induced myeloid leukemia cell differentiation protein Mcl-1; type: functional
[10] = target: T3, Runt-related transcription factor 1/Core-binding factor subunit beta (Homo sapiens, UniProt Q01196+Q13951); assay: disruptors of Runt domain/CBFb-SMMHC interaction – biochemical, FRET, Cerulean-Runt, Venus-CBFb-SMMHC, uHTS, […] (AID 1434); type: protein assay
T3 sequence (Q01196 whole entry, the tested form may be a part): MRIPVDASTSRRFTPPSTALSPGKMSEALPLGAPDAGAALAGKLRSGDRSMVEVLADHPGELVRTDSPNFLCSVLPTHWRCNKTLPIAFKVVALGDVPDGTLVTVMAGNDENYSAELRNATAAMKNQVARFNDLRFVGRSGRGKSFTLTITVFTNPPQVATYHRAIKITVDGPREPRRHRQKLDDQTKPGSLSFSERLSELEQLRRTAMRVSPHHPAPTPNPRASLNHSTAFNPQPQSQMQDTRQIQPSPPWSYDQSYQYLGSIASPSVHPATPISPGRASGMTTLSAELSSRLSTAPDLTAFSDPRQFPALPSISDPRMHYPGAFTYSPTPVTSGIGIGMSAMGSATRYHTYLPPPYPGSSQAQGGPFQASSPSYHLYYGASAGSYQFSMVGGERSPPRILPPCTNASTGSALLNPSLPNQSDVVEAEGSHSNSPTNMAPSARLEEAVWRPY
T3 sequence (Q13951 whole entry, the tested form may be a part): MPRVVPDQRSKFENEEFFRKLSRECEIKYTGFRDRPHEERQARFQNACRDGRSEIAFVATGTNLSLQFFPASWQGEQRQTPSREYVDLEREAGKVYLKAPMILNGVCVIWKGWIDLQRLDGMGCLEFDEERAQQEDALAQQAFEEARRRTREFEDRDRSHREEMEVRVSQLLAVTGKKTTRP

[11] = Late-stage probe development counterscreen for inhibitors of the Hepatitis C Virus non-structural protein 3 helicase (NS3): luminescence-based cell-based dose response assay to determine whether compounds that inhibit replication of HCV RNA replicon are cytotoxic. [Related pubchem assays (depositor defined):AID1800, AID1830, AID1845, AID1943, AID1945, AID2172, AID2173, AID2474, AID2476]; type: functional
Large T antigen = Large T antigen (Simian virus 40, UniProt P03070); type: functional, Betapolyomavirus macacae;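 further: Confirmatory-stage PubChem screen for compounds that inhibit SV40 T antigen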
[12] = target: Transitional endoplasmic reticulum ATPase (Homo sapiens, UniProt P55072); assay: p97 ATPase inhibitors, dose response, biochemical (AID 1534)
[13] = target: T3, Runt-related transcription factor 1/Core-binding factor subunit beta; assay: Runt domain/CBFb-SMMHC interaction disruptors – biochemical, TR-FRET (AID 1438); type: protein assay
[14] = target: T4, Low molecular weight phosphotyrosine protein phosphatase (Homo sapiens, UniProt P24666); type: functional; conditions: read-out: IC50_Mean;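 further: Dose-response confirmation assay measuring inhibition of LMPTP enzyme activity by fluorescence intensity read-out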
T4 sequence (P24666 whole entry): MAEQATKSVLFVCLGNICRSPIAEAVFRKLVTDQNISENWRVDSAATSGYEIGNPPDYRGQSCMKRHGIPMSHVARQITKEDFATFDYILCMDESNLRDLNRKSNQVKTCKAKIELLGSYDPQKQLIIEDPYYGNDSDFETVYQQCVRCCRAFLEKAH

[15] = target: T5, Mannose-6-phosphate isomerase (Homo sapiens, UniProt P34949); assay: MPI enzyme activity inhibition – biochemical, fluorescence intensity, coupled assay, primary screen (AID 1209)
T5 sequence (P34949 whole entry): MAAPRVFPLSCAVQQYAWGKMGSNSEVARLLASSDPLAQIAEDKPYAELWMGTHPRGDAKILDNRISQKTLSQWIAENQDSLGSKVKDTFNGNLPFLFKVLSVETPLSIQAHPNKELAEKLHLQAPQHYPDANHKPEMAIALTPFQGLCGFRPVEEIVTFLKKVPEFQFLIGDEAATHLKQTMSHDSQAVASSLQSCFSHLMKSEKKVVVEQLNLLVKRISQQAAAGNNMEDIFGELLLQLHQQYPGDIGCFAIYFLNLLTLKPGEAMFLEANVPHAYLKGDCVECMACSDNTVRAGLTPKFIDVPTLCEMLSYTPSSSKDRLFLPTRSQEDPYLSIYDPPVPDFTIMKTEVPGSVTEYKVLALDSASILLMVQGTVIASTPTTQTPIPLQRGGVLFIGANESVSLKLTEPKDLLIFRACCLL

Exodeoxyribonuclease V = Exodeoxyribonuclease V (Escherichia coli (strain K12), UniProt P04993+P07648+P08394); assay: RecBCD inhibition via phage-restricted bacterial growth – absorbance, V66 E. coli, mutant T4 phage, counter-screen for AddAB inhibitor project, dose response (AID 492957); type: functional, cell-based, Escherichia coli str. K-12 substr. MG1655
[16] = target: Transitional endoplasmic reticulum ATPase (Homo sapiens, UniProt P55072, C522A); assay: C522A mutant p97 ATPase inhibitors, dose response, counter-screen for p97 inhibitor project, biochemical, luminescence (AID 1544)
NS3 = NS3 (Hepatitis C virus, UniProt A3EZJ3); assay: PubChem AID 2173; set-up: species or system Hepacivirus hominis
Chain of NS3 (A3EZJ3 whole entry): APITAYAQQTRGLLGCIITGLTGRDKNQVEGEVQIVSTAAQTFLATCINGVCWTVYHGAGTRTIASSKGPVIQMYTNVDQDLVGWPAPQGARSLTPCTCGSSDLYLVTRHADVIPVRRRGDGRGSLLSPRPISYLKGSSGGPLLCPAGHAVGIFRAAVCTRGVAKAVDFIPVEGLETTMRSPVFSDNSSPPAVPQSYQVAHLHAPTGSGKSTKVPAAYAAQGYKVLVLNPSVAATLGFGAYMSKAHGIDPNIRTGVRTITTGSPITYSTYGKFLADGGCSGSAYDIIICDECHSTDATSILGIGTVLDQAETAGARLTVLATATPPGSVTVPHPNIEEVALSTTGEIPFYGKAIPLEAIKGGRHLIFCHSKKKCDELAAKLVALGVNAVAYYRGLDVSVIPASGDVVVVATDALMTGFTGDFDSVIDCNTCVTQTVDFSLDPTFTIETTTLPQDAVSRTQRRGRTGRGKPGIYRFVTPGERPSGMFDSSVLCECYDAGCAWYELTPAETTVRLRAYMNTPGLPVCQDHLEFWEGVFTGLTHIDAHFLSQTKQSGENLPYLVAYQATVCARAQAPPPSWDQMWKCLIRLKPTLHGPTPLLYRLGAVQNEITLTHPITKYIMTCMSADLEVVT

Bcl-2-like protein 1 = Bcl-2-like protein 1 (Homo sapiens, UniProt Q07817); assay: blockers of BCLXL peptide binding – biochemical, fluorescence polarization, 1536-well, selectivity assay for MCL1 inhibitor project, dose response (AID 2218)
HeLa = assay: ATP-based viability loss in HeLa cells – cell-based, CellTiter-Glo luminescence, cherry-pick samples, cytotoxicity control for MITF activator project, dose response (AID 540259); type: functional; conditions: Homo sapiens
[17] = Luminescence Cell-Based Dose Response Follow up to Identify Inhibitors of Platelet Dense Granule Release. [Related pubchem assays (depositor defined):AID1663, AID1678, AID2398]; type: functional
Hexokinase HKDC1 = Hexokinase HKDC1 (Homo sapiens, UniProt Q2TB90); assay: analog inhibition of human HKDC1 activity – biochemical, set 2, SAR follow-up (AID 588355); type: functional
Hexokinase-1 = Hexokinase-1 (Homo sapiens, UniProt P19367); assay: hexokinase 1 activity inhibitors, potency – biochemical, set 2, resazurin fluorescence coupled readout, selectivity assay for HKDC1 inhibitor project, SAR follow-up (AID 588356); type: functional
[18] = target: Short transient receptor potential channel 6 (Mus musculus, UniProt Q61143); assay: mouse TRPC6 channel blockers, concentration series – HEK293 cells, membrane potential dye, IC50, selectivity assay for selective TRPC4 inhibitor project, dose response (AID 492987); type: functional, cell-based
[19] = target: T1, Short transient receptor potential channel 4; assay: SAR Analysis for the identification of selective inhibits of the transient receptor potential cation channel C4 (TRPC4): Automated Electrophysiology_2. [Related pubchem assays (depositor defined):AID2256]; type: functional
Phospholipase D1 = Phospholipase D1 (Homo sapiens, UniProt Q13393); assay: cellular phospholipase D1 inhibition IC50 – cell-based, dose response (AID 602151); type: functional;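 further: cellular PLD1 assay in Calu-1 cells stimulated with PMA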
Phospholipase D2 = Phospholipase D2 (Homo sapiens, UniProt O14939); assay: cellular phospholipase D2 inhibition IC50 – cell-based, dose response (AID 602147); type: functional;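 further: cellular assay in HEK293 cells overexpressing GFP-tagged PLD2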
Chain of Phospholipase D2 (O14939 whole entry, the tested form may be a part): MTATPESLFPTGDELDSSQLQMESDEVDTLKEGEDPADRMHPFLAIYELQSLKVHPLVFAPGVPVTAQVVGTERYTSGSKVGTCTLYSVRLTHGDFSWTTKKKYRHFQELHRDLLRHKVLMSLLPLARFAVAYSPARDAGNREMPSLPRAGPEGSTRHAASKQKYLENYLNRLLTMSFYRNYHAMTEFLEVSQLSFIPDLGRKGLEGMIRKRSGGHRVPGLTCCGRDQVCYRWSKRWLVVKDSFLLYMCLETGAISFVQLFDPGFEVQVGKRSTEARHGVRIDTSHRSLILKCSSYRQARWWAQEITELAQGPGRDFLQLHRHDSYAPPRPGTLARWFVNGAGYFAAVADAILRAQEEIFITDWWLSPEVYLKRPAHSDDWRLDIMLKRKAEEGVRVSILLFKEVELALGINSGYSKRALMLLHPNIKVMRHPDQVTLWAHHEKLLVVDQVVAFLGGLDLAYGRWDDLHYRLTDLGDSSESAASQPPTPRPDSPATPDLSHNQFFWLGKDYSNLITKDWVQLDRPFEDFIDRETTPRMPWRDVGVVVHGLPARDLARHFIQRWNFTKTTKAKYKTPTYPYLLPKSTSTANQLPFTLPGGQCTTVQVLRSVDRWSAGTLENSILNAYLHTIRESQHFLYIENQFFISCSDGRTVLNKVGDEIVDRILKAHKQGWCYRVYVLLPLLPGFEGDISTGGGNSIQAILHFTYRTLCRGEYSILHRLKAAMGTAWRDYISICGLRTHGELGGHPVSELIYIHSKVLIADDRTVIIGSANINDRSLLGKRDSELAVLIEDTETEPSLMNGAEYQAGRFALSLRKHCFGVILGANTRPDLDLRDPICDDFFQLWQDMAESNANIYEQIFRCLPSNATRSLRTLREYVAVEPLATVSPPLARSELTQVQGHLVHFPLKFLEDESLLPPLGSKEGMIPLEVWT

[20] = off-target signal loss in HeLa-CEM21 co-culture – HeLa F-luc CTL cells, cherry-picked, counter-screen for HIV-1 Env fusion inhibitor project, dose response (AID 652040); type: functional, cell-based;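 further: potency for signal decrease marking cytotoxic or nonspecific inhibition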
[21] = alpha-synuclein stem-loop luciferase translation blockers – H4 neuroglioma cells, luminescence, confirmation (AID 1988); type: functional, cell-based
[22] = luciferase reporter signal suppression in cells – H4 neuroglioma cells, luminescence, dose response (AID 1990); type: functional, cell-based
[23] = target: Luciferin 4-monooxygenase (Photuris pensylvanica, UniProt Q27757); assay: inhibition of Cell Titer Glo luciferase signal – biochemical, luminescence, cherry-picks, counter-screen for HSF-1 reporter inhibitor project, dose response (AID 588847)
[24] = Luminescence Cell-Based Dose Response HTS to Identify Inhibitors of 5'UTR Stem-Loop Driven Prion Protein mRNA Translation in H4 Neuroglioblastoma Cells. [Related pubchem assays: 1827 (Project Summary), 1813 (Primary HTS)]; type: functional
[25] = blockers of HIV-1 envelope-mediated cell-cell fusion – cherry-pick, dose response (AID 652057); type: functional, cell-based
HEK293 = assay: EBV LMP1 TES2 canonical NF-kB signalling blockers – cell-based, HEK293, luciferase, cherry-pick, dose response (AID 588343); type: functional; conditions: Homo sapiens
[26] = HIV-1 AD8 envelope cell-cell fusion blockers – cherry-pick, dose response (AID 652062); type: functional, cell-based;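 further: luciferase signal from cell-cell fusion driven by HIV-1 clade B AD8 Env; potency is for inhibitors of fusion seen as a drop in luminescence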

Chain of Voltage-gated inwardly rectifying potassium channel KCNH2 (Q12809 whole entry): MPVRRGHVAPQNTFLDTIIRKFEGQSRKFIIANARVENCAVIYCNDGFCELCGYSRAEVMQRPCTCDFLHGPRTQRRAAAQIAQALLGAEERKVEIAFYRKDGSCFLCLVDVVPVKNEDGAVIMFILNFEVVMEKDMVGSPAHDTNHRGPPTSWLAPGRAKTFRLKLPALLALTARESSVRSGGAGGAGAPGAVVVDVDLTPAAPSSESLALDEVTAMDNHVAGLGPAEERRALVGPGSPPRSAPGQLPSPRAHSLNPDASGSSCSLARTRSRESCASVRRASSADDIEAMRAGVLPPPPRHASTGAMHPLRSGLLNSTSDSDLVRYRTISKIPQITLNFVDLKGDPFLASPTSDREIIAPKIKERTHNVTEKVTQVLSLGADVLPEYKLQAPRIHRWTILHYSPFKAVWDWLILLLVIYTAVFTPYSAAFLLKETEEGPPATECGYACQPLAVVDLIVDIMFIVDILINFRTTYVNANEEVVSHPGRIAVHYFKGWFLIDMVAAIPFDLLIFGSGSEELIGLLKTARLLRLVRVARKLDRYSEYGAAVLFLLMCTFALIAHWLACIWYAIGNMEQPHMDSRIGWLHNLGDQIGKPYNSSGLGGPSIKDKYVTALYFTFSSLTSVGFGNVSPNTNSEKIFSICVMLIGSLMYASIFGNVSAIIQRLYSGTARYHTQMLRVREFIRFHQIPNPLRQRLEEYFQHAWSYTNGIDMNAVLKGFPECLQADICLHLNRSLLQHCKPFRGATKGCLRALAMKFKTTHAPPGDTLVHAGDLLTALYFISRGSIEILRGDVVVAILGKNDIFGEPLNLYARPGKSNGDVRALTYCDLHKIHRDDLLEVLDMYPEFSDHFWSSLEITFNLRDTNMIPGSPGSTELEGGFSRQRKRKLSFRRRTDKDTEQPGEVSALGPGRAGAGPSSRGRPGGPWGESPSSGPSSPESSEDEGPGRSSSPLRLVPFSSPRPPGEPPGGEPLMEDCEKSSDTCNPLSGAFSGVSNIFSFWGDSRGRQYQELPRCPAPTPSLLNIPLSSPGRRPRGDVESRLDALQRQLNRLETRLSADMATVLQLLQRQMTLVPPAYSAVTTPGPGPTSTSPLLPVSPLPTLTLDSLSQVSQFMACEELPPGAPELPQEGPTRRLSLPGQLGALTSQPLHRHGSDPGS

SMILES: CCCCN1CCC(n2c(=O)[nH]c3ccccc32)CC1
- AC50 [1]: 11.2 µM (inconclusive)

SMILES: CCOC(=O)C1(CCOc2ccccc2)CCN(Cc2ccc3c(c2)OCCO3)CC1
- EC50 [2]: > 92.5 µM (inactive)
- EC50 [3]: > 92.5 µM (inactive)
- EC50 [4]: 1.33 µM (active)
- EC50 (Mu-type opioid receptor): > 92.5 µM (inactive)

SMILES: O=C(O)CCn1cc(/C=C\C(=O)c2ccc(Cl)cc2)c(-c2cccc(Br)c2)n1
- IC50 (Phospholipase A2): 14.9 µM (active)
- IC50 (Cysteine protease ATG4B): 15.7 µM (active)

SMILES: COc1cccc(-n2c(SCc3cc(=O)oc4cc(O)c(O)cc34)nc3ccccc3c2=O)c1
- IC50 [5]: > 119 µM (inactive)
- EC50 [6]: > 150 µM (inactive)
- IC50 [7]: > 109 µM (not active)
- EC50 [8]: > 38 µM (not active)
- IC50 [9]: 2.72 µM (active)
- IC50 [10]: 2 µM (active)
- CC50 [11]: > 100 µM (inactive)
- IC50 (Large T antigen): > 100 µM (active)
- IC50 [12]: 21.1 µM (not active)
- IC50 [13]: 19.3 µM (active)
- IC50 [14]: 53.1 µM (inactive)
- IC50 [15]: 15.6 µM (active)
- IC50 (Exodeoxyribonuclease V): > 119 µM (inactive)
- IC50 [16]: > 50 µM (not active)
- IC50 (NS3): 2.31 µM (active)
- IC50 (Bcl-2-like protein 1): > 109 µM (not active)

SMILES: Cc1cccc(-c2cc(N)n(-c3ccccc3)n2)c1
- AC50 (HeLa): > 350 µM (inactive)

SMILES: Cn1c(N)c(C#N)c(-c2ccccc2)c(C#N)c1=O
- EC50 [17]: 1.74 µM (active)

SMILES: CCCCN1C(=O)C(NC(C)=O)c2cc(OC)ccc21 (centres undefined)
- IC50 (Hexokinase HKDC1): > 80 µM (inactive)
- IC50 (Hexokinase-1): > 80 µM (inactive)

SMILES: CCc1ccc2nc(N3CCCCC3)cc(C)c2c1
- IC50 [18]: 15 µM (active)
- IC50 [19]: 3.73 µM (active)

SMILES: CC(C)[C@@H](CN1CCC2(CC1)C(=O)NCN2c1ccccc1)NC(=O)c1cc2cc(F)ccc2[nH]1
- IC50 (Phospholipase D1): 0.026 µM (active)
- IC50 (Phospholipase D2): 0.48 µM (active)

SMILES: CCOc1ccc(OCc2cccc(C(=O)N/N=C/c3cccnc3)c2)cc1
- AC50 [20]: 1.46 µM (active)
- EC50 [21]: 9.36 µM (active)
- EC50 [22]: 9.06 µM (active)
- AC50 [23]: 31.9 µM (active)
- EC50 [24]: 12.8 µM (active)
- AC50 [25]: 2.3 µM (active)
- AC50 (HEK293): 1.29 µM (active)
- AC50 [26]: 3.31 µM (active)
